What was measured:
Androgen receptor = target: T1, Androgen receptor (Homo sapiens, UniProt P10275)
T1 sequence (P10275 whole entry): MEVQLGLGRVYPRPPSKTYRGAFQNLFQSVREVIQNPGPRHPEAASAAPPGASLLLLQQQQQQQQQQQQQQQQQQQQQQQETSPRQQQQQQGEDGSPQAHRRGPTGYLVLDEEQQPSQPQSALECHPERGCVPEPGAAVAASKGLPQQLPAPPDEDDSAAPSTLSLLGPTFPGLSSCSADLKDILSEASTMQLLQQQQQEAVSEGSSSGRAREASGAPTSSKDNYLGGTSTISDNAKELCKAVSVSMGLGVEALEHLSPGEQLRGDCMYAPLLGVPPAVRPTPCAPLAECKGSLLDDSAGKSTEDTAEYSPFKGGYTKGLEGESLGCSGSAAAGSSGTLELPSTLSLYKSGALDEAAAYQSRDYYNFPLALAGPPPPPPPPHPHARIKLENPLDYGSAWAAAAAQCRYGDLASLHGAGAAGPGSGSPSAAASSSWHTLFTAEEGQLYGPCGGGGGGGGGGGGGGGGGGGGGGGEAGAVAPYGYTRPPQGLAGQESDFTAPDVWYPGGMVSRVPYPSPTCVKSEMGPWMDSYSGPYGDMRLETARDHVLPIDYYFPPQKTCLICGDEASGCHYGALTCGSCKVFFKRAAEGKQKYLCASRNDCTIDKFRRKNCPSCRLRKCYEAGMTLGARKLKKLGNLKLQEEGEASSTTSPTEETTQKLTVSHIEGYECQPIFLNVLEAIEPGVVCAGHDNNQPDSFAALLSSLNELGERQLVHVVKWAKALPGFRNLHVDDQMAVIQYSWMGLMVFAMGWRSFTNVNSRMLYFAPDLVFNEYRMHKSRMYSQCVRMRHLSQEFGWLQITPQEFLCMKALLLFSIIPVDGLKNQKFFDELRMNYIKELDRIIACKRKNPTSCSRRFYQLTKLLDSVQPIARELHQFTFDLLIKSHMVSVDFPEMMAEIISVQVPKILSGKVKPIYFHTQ

[1] = target: T2, 5-hydroxytryptamine receptor 1A (Homo sapiens, UniProt P08908); assay type: functional, cell-based
T2 sequence (P08908 whole entry): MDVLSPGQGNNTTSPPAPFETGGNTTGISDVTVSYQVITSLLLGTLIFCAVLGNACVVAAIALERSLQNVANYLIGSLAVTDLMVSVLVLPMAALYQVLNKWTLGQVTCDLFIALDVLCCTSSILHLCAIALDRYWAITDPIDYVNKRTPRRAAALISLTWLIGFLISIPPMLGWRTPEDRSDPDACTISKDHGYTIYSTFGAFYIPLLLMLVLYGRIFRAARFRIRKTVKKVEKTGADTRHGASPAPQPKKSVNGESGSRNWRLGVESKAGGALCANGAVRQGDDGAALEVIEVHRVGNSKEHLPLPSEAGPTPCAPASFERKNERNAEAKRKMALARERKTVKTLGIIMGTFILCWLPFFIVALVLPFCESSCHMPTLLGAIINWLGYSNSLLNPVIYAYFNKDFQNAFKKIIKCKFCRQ

[2] = target: T3, 5-hydroxytryptamine receptor 3A (Homo sapiens, UniProt P46098); assay type: functional
T3 sequence (P46098 whole entry): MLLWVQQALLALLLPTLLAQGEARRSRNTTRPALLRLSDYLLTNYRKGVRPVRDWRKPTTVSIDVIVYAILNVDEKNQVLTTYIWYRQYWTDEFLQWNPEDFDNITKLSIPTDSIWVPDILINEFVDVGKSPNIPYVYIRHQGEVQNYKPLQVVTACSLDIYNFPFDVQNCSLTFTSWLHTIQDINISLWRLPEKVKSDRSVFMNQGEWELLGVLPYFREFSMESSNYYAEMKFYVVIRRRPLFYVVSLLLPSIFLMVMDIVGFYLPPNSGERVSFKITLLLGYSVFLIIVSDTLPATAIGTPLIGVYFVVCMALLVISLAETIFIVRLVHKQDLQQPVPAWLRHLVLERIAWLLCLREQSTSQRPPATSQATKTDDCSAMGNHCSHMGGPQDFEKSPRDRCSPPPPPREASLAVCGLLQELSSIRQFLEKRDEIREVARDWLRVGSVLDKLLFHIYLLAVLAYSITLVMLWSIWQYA

[3] = target: Beta-2 adrenergic receptor (Homo sapiens, UniProt P07550)
[4] = target: T4, Cholecystokinin receptor type A (Homo sapiens, UniProt P32238)
T4 sequence (P32238 whole entry): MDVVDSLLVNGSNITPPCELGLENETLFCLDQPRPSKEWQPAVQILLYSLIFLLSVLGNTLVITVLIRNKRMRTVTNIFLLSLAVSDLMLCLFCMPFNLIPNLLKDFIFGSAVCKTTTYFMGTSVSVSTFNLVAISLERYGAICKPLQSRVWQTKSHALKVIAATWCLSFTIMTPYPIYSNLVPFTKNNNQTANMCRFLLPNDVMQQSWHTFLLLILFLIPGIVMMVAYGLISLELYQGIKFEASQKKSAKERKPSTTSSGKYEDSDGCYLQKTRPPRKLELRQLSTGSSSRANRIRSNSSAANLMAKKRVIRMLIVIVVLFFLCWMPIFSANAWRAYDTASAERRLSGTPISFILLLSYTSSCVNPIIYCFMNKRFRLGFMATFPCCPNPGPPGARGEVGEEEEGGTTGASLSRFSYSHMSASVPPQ

[5] = target: T5, Neuropeptide Y receptor type 1 (Homo sapiens, UniProt P25929)
T5 sequence (P25929 whole entry): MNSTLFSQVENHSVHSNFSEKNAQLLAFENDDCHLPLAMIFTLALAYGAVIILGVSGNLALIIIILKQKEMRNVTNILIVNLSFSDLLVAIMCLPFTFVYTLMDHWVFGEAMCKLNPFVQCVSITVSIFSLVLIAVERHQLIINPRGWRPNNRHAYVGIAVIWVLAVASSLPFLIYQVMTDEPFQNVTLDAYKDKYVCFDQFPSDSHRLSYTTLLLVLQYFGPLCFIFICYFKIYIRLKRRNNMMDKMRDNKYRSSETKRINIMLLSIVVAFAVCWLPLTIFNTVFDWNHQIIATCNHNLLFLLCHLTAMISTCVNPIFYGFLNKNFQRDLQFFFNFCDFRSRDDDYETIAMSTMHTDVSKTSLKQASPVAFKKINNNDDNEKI
Further: assay procedure not described here.

Beta-2 adrenergic receptor, sequence (P07550 whole entry): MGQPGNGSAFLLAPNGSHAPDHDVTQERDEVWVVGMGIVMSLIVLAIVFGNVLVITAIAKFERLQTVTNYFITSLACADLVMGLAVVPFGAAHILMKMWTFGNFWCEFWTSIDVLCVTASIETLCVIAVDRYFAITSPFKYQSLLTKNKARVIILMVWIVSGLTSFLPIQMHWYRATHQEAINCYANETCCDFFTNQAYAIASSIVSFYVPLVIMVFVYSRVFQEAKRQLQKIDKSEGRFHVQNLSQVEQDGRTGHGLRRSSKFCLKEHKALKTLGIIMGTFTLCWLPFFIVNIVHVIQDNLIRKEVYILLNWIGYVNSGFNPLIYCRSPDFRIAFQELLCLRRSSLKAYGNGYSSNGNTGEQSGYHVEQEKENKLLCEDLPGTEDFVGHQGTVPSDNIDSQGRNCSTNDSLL

For `CC[C@@H]1C[C@]1(NC(=O)[C@@H]1C[C@@H]2CN1C(=O)[C@H](C(C)(C)C)NC(=O)OCC(C)(C)CCCCc1cccc3c1CN(C3)C(=O)O2)C(=O)NS(=O)(=O)C1CC1`, the AC50 (Androgen receptor) was > 30 µM.
For `CC(=O)NO` [ACETOHYDROXAMIC ACID], the AC50 (Androgen receptor) was > 30 µM.
`C=C(C)CNc1ccc(C(C)C(=O)O)cc1` (stereo unspecified) [ALMINOPROFEN] was tested, and the AC50 (Androgen receptor) was > 30 µM.
For `C[C@H]1CN(C[C@H](Cc2ccccc2)C(=O)NCC(=O)O)CC[C@@]1(C)c1cccc(O)c1` [ALVIMOPAN], the AC50 (Androgen receptor) was > 30 µM.
With `CC(C)NC(=N)NC(=N)Nc1ccc(Cl)c(Cl)c1` [CHLORPROGUANIL] the AC50 (Androgen receptor) was > 30 µM, the AC50 [1] was > 30 µM and the AC50 [2] was > 30 µM.
`C[N+](C)(C)CCOP(=O)(O)OP(=O)([O-])OC[C@H]1O[C@@H](n2ccc(N)nc2=O)[C@H](O)[C@@H]1O` [CITICOLINE] was tested, and the AC50 (Androgen receptor) was > 30 µM and the AC50 [2] was > 30 µM.
For `C[C@H]1O[C@@H](O[C@H]2CC[C@@]3(C)[C@H](CC[C@@H]4[C@@H]3C[C@@H](O)[C@]3(C)[C@@H](C5=CC(=O)OC5)CC[C@]43O)C2)C[C@H](O)[C@@H]1O[C@H]1C[C@H](O)[C@H](O[C@H]2C[C@H](O)[C@H](O[C@@H]3O[C@H](CO)[C@@H](O)[C@H](O)[C@H]3O)[C@@H](C)O2)[C@@H](C)O1` [DESLANOSIDE], the AC50 (Androgen receptor) was > 30 µM.
With `O=C(O)Cc1ccccc1Nc1c(Cl)cccc1Cl` [DICLOFENAC] the AC50 [3] was > 10 µM, the AC50 (Androgen receptor) was > 3 µM and the AC50 [4] was > 30 µM. For the same compound, the AC50 [1] was > 10 µM, the AC50 [2] was > 10 µM and the AC50 [5] was > 30 µM.
`CN[C@@H]1[C@H](O[C@H]2[C@H](O[C@H]3[C@H](O)[C@@H](O)[C@H](NC(=N)N)[C@@H](O)[C@@H]3NC(=N)N)O[C@@H](C)[C@]2(O)CO)O[C@@H](CO)[C@H](O)[C@H]1O` [DIHYDROSTREPTOMYCIN] was tested, and the AC50 (Androgen receptor) was > 30 µM.
With `CC(C)C(=O)Oc1ccc(CO)cc1[C@H](CCN(C(C)C)C(C)C)c1ccccc1` [FESOTERODINE] the AC50 (Androgen receptor) was > 30 µM.
`Cc1ccc(C)c(OCCCC(C)(C)C(=O)O)c1` [GEMFIBROZIL] was tested, and the AC50 [3] was > 10 µM, the AC50 (Androgen receptor) was > 30 µM and the AC50 [4] was > 30 µM. For the same compound, the AC50 [1] was > 10 µM, the AC50 [2] was > 30 µM and the AC50 [5] was > 30 µM.
With `C#C[C@]1(O)C=C[C@H]2[C@@H]3CCC4=CC(=O)CC[C@@H]4[C@H]3CC[C@@]21CC` [GESTODENE] the AC50 (Androgen receptor) was 0.003 µM.
`COc1ccccc1OC1(C)OC(=O)c2ccccc2O1` (stereo unspecified) [GUAIMESAL] was tested, and the AC50 [3] was > 30 µM, the AC50 (Androgen receptor) was > 30 µM and the AC50 [4] was > 30 µM. For the same compound, the AC50 [5] was > 30 µM.
In the case of `N=C(N)N/N=C/c1c(Cl)cccc1Cl` [GUANABENZ], the AC50 (Androgen receptor) is reported as > 30 µM.
With `CCCCC(CC)CN1CN(CC(CC)CCCC)CC(C)(N)C1` (stereo unspecified) [HEXETIDINE] the AC50 (Androgen receptor) was > 30 µM.
`CC(C)[C@@H]1CC[C@@H](C)C[C@H]1O` [LEVOMENTHOL] was tested, and the AC50 (Androgen receptor) was > 30 µM.
For `COC(=O)[C@@H](N)Cc1ccc(O)c(O)c1` [MELEVODOPA], the AC50 (Androgen receptor) was > 30 µM.
`CN(C)c1ccc(O)c2c1C[C@H]1C[C@H]3[C@H](N(C)C)C(O)=C(C(N)=O)C(=O)[C@@]3(O)C(O)=C1C2=O` [MINOCYCLINE] was tested, and the AC50 (Androgen receptor) was > 30 µM.
`CCNC(=O)/C=C(C)/C=C/C=C(C)/C=C/c1c(C)cc(OC)c(C)c1C` [MOTRETINIDE] was tested, and the AC50 (Androgen receptor) was > 30 µM.
`C=CC(=O)Nc1cccc(Oc2nc(Nc3ccc(N4CCN(C)CC4)cc3)nc3ccsc23)c1` [OLMUTINIB] was tested, and the AC50 (Androgen receptor) was > 30 µM.
With `CCCCC1C(=O)N(c2ccccc2)N(c2ccc(O)cc2)C1=O` (stereo unspecified) [OXYPHENBUTAZONE ANHYDROUS] the AC50 (Androgen receptor) was > 30 µM.
With `Nc1cccc2c1C(=O)N(C1CCC(=O)NC1=O)C2=O` (stereo unspecified) [POMALIDOMIDE] the AC50 (Androgen receptor) was > 30 µM.
`Cc1ccsc1C(=CCCN1CCC[C@@H](C(=O)O)C1)c1sccc1C` [TIAGABINE] was tested, and the AC50 (Androgen receptor) was > 30 µM.
With `Cc1ccc(C(=O)c2ccc(CC(=O)O)n2C)cc1` [TOLMETIN] the AC50 (Androgen receptor) was > 30 µM.
`CC[C@]12CCCN3CCc4c(n(c5ccccc45)[C@@](O)(C(=O)OC)C1)[C@@H]32` [VINCAMINE] was tested, and the AC50 (Androgen receptor) was > 30 µM.

Reference: ChEMBL document CHEMBL5291721, “A preclinical secondary pharmacology resource illuminates target-adverse drug reaction associations of marketed drugs” (Nat Commun, 2023)
